Results as given in ChEMBL document CHEMBL1155778, “The many roles for fluorine in medicinal chemistry” (J Med Chem, 2008).
Blank lines part the entries; values can stand above or below the compound they belong to.

How the values were obtained:
[1] = Dissociation constant, pKa of the compound; type: physicochemical
Cavia porcellus = experiment: Inhibition of resiniferatoxin-induced systemic vascular leakage in po dosed guinea pig […] model after 24 hrs; type: functional
Meriones unguiculatus = experiment: Inhibition of GR-73632-induced foot-tapping in iv dosed gerbils after 24 hrs; type: functional; details: read-out: ID50 (the source's name)
Substance-P receptor = Substance-P receptor (Homo sapiens, UniProt P25103); experiment: Inhibition of NK1 receptor
Cathepsin K = molecular target: T1, Cathepsin K (Homo sapiens, UniProt P43235); experiment: Inhibition of cathepsin K
T1 sequence (P43235 whole entry): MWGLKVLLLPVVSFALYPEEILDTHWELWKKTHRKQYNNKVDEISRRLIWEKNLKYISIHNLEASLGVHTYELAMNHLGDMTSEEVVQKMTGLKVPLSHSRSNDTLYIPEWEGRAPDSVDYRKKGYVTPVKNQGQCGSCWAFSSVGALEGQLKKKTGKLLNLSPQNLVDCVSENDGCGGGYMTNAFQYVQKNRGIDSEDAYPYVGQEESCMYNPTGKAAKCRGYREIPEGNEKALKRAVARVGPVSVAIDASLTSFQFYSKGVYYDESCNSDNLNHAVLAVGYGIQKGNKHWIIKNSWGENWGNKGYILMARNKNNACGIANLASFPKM

[2] = Plasma clearance in rat at 2 mg/kg, po; type: ADME, organism-based; design: dose 2 mg/kg, route oral
[3] = Half life in rat plasma at 2 mg/kg, po; type: ADME, organism-based; design: dose 2 mg/kg, route oral
[4] = Oral bioavailability in rat; type: ADME, organism-based; details: in vivo
[5] = Cmax in rat at 2 mg/kg, po; type: ADME, organism-based; design: dose 2 mg/kg, route oral; details: in vivo
Cannabinoid receptor 1 = Cannabinoid receptor 1 (Homo sapiens, UniProt P21554); experiment: Displacement of [3H]CP-55940 from human CB1 receptor expressed in CHO cells; type: cell-based
[6] = Plasma clearance in rat at 10 mg/kg, po; type: ADME, organism-based; design: dose 10 mg/kg, route oral
[7] = Half life in rat plasma at 10 mg/kg, po; type: ADME, organism-based; design: dose 10 mg/kg, route oral
[8] = Metabolic stability in rat hepatocytes after 2 hrs
[9] = Drug level in duct cannulated rat bile at 5 mg/kg, iv; type: ADME, organism-based; design: dose 5 mg/kg, route intravenous; details: in vivo, read-out: Drug uptake
Liver microsomes = experiment: Metabolic stability in human liver microsomes assessed as covalent protein binding per mg of protein; type: ADME, Microsome
Prothrombin = Prothrombin (Homo sapiens, UniProt P00734); experiment: Inhibition of human thrombin
[10] = Cmax in rat at 10 mg/kg, po; type: ADME, organism-based; design: dose 10 mg/kg, route oral; details: in vivo
[11] = molecular target: T2, Prostaglandin D2 receptor (Homo sapiens, UniProt Q13258)
T2 sequence (Q13258 whole entry): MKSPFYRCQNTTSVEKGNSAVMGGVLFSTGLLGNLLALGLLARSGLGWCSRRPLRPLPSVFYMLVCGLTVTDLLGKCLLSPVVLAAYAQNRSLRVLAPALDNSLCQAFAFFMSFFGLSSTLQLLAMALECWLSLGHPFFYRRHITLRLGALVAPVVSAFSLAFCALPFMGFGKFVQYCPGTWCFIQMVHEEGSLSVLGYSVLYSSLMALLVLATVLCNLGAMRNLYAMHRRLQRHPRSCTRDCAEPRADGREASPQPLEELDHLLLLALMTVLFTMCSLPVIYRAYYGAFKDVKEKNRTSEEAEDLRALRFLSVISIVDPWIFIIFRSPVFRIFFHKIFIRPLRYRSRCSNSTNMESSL

[12] = Half life in human plasma; type: ADME, organism-based

Cannabinoid receptor 1, sequence (P21554 whole entry): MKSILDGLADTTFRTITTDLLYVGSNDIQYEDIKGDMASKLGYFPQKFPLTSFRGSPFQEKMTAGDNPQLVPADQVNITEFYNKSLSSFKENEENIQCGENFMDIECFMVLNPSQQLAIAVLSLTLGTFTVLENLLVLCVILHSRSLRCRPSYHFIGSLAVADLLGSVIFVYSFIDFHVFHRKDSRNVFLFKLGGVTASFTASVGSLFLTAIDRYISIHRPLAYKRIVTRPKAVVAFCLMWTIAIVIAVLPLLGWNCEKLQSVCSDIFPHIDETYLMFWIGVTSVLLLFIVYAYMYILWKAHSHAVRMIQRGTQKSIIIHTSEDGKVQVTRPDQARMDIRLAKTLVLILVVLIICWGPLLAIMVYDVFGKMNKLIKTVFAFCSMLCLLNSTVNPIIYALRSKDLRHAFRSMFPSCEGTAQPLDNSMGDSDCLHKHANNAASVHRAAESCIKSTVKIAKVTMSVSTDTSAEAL
Substance-P receptor, sequence (P25103 whole entry): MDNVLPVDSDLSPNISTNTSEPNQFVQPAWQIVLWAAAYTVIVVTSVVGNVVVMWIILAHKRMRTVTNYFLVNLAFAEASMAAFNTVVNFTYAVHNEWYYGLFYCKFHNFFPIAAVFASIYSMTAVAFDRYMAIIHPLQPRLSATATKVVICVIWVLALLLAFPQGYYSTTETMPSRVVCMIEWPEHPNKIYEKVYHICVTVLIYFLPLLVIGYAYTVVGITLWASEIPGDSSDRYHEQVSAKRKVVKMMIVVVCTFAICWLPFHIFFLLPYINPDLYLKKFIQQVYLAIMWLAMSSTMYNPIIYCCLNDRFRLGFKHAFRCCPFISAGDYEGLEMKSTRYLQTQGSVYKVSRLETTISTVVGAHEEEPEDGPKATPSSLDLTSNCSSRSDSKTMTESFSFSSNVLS

Compound: O=C(O)c1ccccc1F
pKa [1]: 3.27

Compound: Nc1cccc(C(F)(F)F)c1
pKa [1]: 3.49

Compound: Nc1ccc(C(F)(F)F)cc1
pKa [1]: 2.57

Compound: Fc1ccccn1
pKa [1]: -0.44

Compound: Fc1cccnc1
pKa [1]: 2.97

Compound: Fc1cnc2ccccc2c1
pKa [1]: 2.36

Compound: Fc1ccc2ncccc2c1
pKa [1]: 4

Compound: O=c1[nH]nc(CN2CCO[C@H](OCc3cc(C(F)(F)F)cc(C(F)(F)F)c3)[C@@H]2c2ccc(F)cc2)[nH]1
ID90 (Cavia porcellus): 2.3 mg/kg | ED50 (Meriones unguiculatus): 1.24 mg/kg

Compound: C[C@@H](O[C@H]1OCCN(Cc2n[nH]c(=O)[nH]2)[C@H]1c1ccccc1)c1cc(C(F)(F)F)cc(C(F)(F)F)c1
IC50 (Substance-P receptor): 0.09 nM | ID90 (Cavia porcellus): 2.3 mg/kg | ED50 (Meriones unguiculatus): 1.11 mg/kg

Compound: Nc1ccccc1F
pKa [1]: 3.2

Compound: Oc1ccccc1F
pKa [1]: 8.73

Compound: O=C(O)c1cccc(F)c1
pKa [1]: 3.87

Compound: O=C(O)c1ccc(F)cc1
pKa [1]: 4.14

Compound: Nc1ccc(F)cc1
pKa [1]: 4.65

Compound: O=C(O)CC(F)(F)F
pKa [1]: 3.06

Compound: O=C(O)C(F)F
pKa [1]: 1.24

Compound: Cc1nnn[nH]1
pKa [1]: 4.9

Compound: N[C@@H](CC(=O)N1CCn2cnnc2C1)Cc1cc(F)c(F)cc1F
CL/F [2]: 40 mL/min/kg | half-life [3]: 1 h

Compound: N=C(N)c1ccc([C@H]2C3C(=O)N(Cc4ccccc4F)C(=O)C3C3CCCN32)cc1 (some centres not stated)
Ki (Prothrombin): 500 nM

Compound: N=C(N)c1ccc([C@H]2C3C(=O)N(Cc4cccc(F)c4)C(=O)C3C3CCCN32)cc1 (some centres not stated)
Ki (Prothrombin): 360 nM

Compound: FC(F)(F)c1nnn[nH]1
pKa [1]: 1.7

Compound: O=c1[nH]nc(CN2CCO[C@H](OCc3cc(C(F)(F)F)cc(C(F)(F)F)c3)[C@@H]2c2ccccc2)[nH]1
ID90 (Cavia porcellus): 5.4 mg/kg | ED50 (Meriones unguiculatus): 2.88 mg/kg

Compound: Oc1ccc(F)cc1
pKa [1]: 9.89

Compound: Oc1cccc(F)c1
pKa [1]: 9.29

Compound: C[C@@H](O[C@H]1OCCN(Cc2n[nH]c(=O)[nH]2)[C@H]1c1ccc(F)cc1)c1cc(C(F)(F)F)cc(C(F)(F)F)c1 [APREPITANT]
ID90 (Cavia porcellus): 1.8 mg/kg | ED50 (Meriones unguiculatus): 0.33 mg/kg

Compound: CS(=O)(=O)c1cc(F)cc2c3c(n(Cc4ccc(Cl)cc4)c12)C(CC(=O)O)CC3 (stereo not drawn) [DIASTEREOMER 2]
CL/F [6]: 2.4 mL/min/kg | half-life [7]: 7 h | Cmax [10]: 39 µM | bioavailability [4]: 79% | remaining at 2 h [8]: 32% | concentration [9]: 103 µM

Compound: OCC(F)(F)F [TRIFLUOROETHANOL]
pKa [1]: 12.4

Other lines, results leading:

pKa [1]: 3.68
Compound: Fc1cccc2ncccc12

pKa [1]: 4.04
Compound: Fc1ccc2cccnc2c1

pKa [1]: 3.1
Compound: Fc1cccc2cccnc12

IC50 (Cathepsin K): ≤ 0.005 nM
Compound: CC(C)C[C@H](N[C@@H](c1ccc(-c2ccc(N3CCNCC3)cc2)cc1)C(F)(F)F)C(=O)NCC#N

CL/F [2]: 43 mL/min/kg | half-life [3]: 1.6 h
Compound: N[C@@H](CC(=O)N1CCn2c(nnc2C(F)(F)F)C1)Cc1cc(F)ccc1F

CL/F [2]: 33 mL/min/kg | half-life [3]: 2.8 h | bioavailability [4]: 9% | Cmax [5]: 0.18 µM
Compound: C[C@H](NC(=O)C(C)(C)Oc1ccccc1)[C@@H](Cc1ccc(Cl)cc1)c1ccccc1

IC50 (Cannabinoid receptor 1): 1.47 nM | CL/F [2]: 35 mL/min/kg | half-life [3]: 2.4 h | Cmax [5]: 0.3 µM
Compound: C[C@H](NC(=O)C(C)(C)Oc1cc(F)cc(F)c1)[C@@H](Cc1ccc(Cl)cc1)c1ccccc1

CL/F [2]: 70 mL/min/kg | half-life [3]: 1.7 h
Compound: CCc1nnc2n1CCN(C(=O)C[C@H](N)Cc1cc(F)c(F)cc1F)C2

CL/F [2]: 51 mL/min/kg | half-life [3]: 1.8 h
Compound: N[C@@H](CC(=O)N1CCn2c(nnc2C(F)(F)F)C1)Cc1ccc(F)c(F)c1

IC50 (Cathepsin K): 0.4 nM
Compound: N#CCNC(=O)C1(NC(=O)c2ccc(-c3ccc(N4CCNCC4)cc3)cc2)CCCCC1

IC50 (Cannabinoid receptor 1): 0.54 nM | CL/F [2]: 35 mL/min/kg | half-life [3]: 2.2 h | bioavailability [4]: 100% | Cmax [5]: 1.2 µM
Compound: C[C@H](NC(=O)C(C)(C)Oc1ccc(C(F)(F)F)cn1)[C@@H](Cc1ccc(Cl)cc1)c1ccccc1

CL/F [2]: 25 mL/min/kg | half-life [3]: 2.2 h | bioavailability [4]: 29% | Cmax [5]: 0.44 µM
Compound: C[C@H](NC(=O)C(C)(C)Oc1ccccn1)[C@@H](Cc1ccc(Cl)cc1)c1ccccc1

CL/F [6]: 14 mL/min/kg | half-life [7]: 1.4 h | bioavailability [4]: 100% | remaining at 2 h [8]: 93% | concentration [9]: 1100 µM | Activity (Liver microsomes): 18 pmol/h
Compound: CC(=O)c1cc(S(C)(=O)=O)cc2c3c(n(Cc4ccc(Cl)cc4)c12)[C@@H](CC(=O)O)CC3

IC50 (Cathepsin K): 5 nM
Compound: N#CCNC(=O)C1(N[C@@H](c2ccc(-c3ccc(N4CCNCC4)cc3)cc2)C(F)(F)F)CCCCC1

IC50 (Cathepsin K): 0.015 nM
Compound: CC(C)C[C@H](NC(=O)c1ccc(-c2ccc(N3CCNCC3)cc2)cc1)C(=O)NCC#N

CL/F [2]: 58 mL/min/kg | half-life [3]: 2.3 h
Compound: N[C@@H](CC(=O)N1CCn2c(nnc2C(F)(F)C(F)(F)F)C1)Cc1cc(F)c(F)cc1F

CL/F [6]: 1.9 mL/min/kg | half-life [7]: 4 h | Cmax [10]: 21 µM | bioavailability [4]: 52% | remaining at 2 h [8]: 35% | Ki [11]: 1.1 nM | concentration [9]: 81 µM | Activity (Liver microsomes): 46 pmol/h
Compound: CC(=O)c1cc(F)cc2c3c(n(Cc4ccc(Cl)cc4)c12)C(CC(=O)O)CC3 (configuration not stated)

pKa [1]: 8.9
Compound: Oc1cccc(C(F)(F)F)c1

pKa [1]: 3.79
Compound: O=C(O)c1cccc(C(F)(F)F)c1

half-life [12]: 11.2 h
Compound: Cc1ccc(-c2cc(C(F)(F)F)nn2-c2ccc(S(N)(=O)=O)cc2)cc1 [CELECOXIB]

CL/F [2]: 60 mL/min/kg | half-life [3]: 1.7 h
Compound: N[C@@H](CC(=O)N1CCn2c(nnc2C(F)(F)F)C1)Cc1cc(F)c(F)cc1F [SITAGLIPTIN]

CL/F [2]: 33 mL/min/kg | half-life [3]: 2.7 h | Cmax [5]: 0.49 µM
Compound: C[C@H](NC(=O)C(C)(C)Oc1ccc(C(F)(F)F)cn1)[C@@H](Cc1ccc(Cl)cc1)c1cccc(C#N)c1 [TARANABANT]
